According to patent US20220218851A1, “COMPOUNDS AND METHODS FOR IMAGING IMMUNE ACTIVITY” (Board of Regents, The University of Texas System, priority 2019, published 2022):
“Also recorded” adds a separate entry of the source. Where a name gives a salt, the structure may show the parent alone. Blank lines part the entries; values can stand above or below the compound they belong to.

How the values were obtained:
[1] = test system: neutrophil-like human HL-60 cells; test: [^18F]4FN cellular retention in PMA-activated neutrophil-like HL-60 cells; assay type: cell-based
Method: HL-60 cells were first differentiated to yield “neutrophil-like” cells. Then, in parallel, cell aliquots from each batch were imaged with L-012 (to confirm ROS production by bioluminescence) and incubated with 6.2 kBq of [^18F]4FN. To induce ROS, all cells were incubated with PMA. […] Data were quantified as a ratio of the cell-associated radioactive counts per milligram protein over concentration of radiotracer in the extracellular space, and then normalized to vehicle.

[2] = test system: LPS-induced arthritis; test: LPS-induced model of arthritis, PET imaging and L-012 BLI; assay type: in vivo, mouse
Method: Herein, C57BL6/N mice were injected i.a. with LPS, left ankle, or vehicle, right ankle. After 24 hours, mild inflammation of the left ankle was confirmed by visual inspection. 1 hour dynamic PET scans were acquired post i.v. injection of [^18F]4FN. Mice were subsequently imaged for ROS by BLI (L-012). A) 1 hour static [^18F]4FN PET image (left) and BLI (right). B) PET image-derived time-activity curves (TACs) were quantified for the ankles (left, n=4). […] C) H&E staining cross-validated local inflammation (vehicle, left panel; LPS, right panel), utilizing the same mouse as imaged in A. D) Image-based biodistribution was calculated from the dynamic PET/CT data and SUV plotted for various organs over time.
[^18F]4FN PET was employed to image a model of inflammatory arthritis and validate its correlation with L012, a known ROS/RNS bioluminescence sensor.

[3] = Stability in mouse plasma; assay type: in vitro ADME
Method: (§1) [^18F]4FN was synthesized on the automated module GE TracerLab-FX from precursor 1 in 6.8±2.5% (n=22) activity yield, by means of a copper-mediated radiofluorination of the corresponding Boc-protected pinacol boronic ester, followed by deprotection, purification and reformulation (Scheme 2; Tredwell et al., 2014). [^18F]4FN was obtained in >99% radiochemical purity, 50-140 GBq/μmol and up to 4 h shelf-stability in PBS (10% EtOH). [^18F]4FN was also stable in mouse plasma for at least 1 h.

[4] = test system: PMA-induced ear inflammation; test: PMA ear inflammation model, PET/CT imaging; assay type: in vivo, mouse; details: for detection of PMA-inflamed ear versus vehicle ear by PET: about 1 hr post tracer injection ([^18F]FDG from 45 min)
Method: 3 Months old Balb/c female mice or 20-26 week-old female C57B16 mice (Taconic) were topically treated with PMA (Sigma) (400 μM) in ethanol on the right ear or vehicle, ethanol, on the left ear. 24 hrs later, inflammation of the right ear was validated by visual inspection for redness and swelling. Mice were then injected IV (unless noted) with [^18F]FN or [^18F]FNS or [^18F]FNG derivatives as noted and PET/CT images were acquired at times indicated, typically 1 hr post injection. Mice, n=3 for [^18F]FN and [^18F]FNS, were euthanized at 1.5 hr post injection for blood metabolism analysis. In one experiment, adult (3 month old Balb/c) were imaged on an in vivo imaging system (IVIS Spectrum, PE; 5 min, binning 16, 25 cm FOV) 10 min post injection of Luminol (200 mg/kg) IP to confirm production of reactive oxygen species. For [^18F]FDG PET imaging experiments, mice were fasted for >4 hr prior to FDG injection. Mice were injected with [^18F]FDG IV under light anesthesia and then allowed to awake, move and drink water at libitum. Cages were kept on a cage warmer during uptake and washout periods. Mice were imaged starting at 45 min post-injection with a 10 min PET/CT scan (Albira, Bruker). In all cases, PET images were acquired for 10 min using a 15 cm FOV; CT images were acquired for fusion using a 7 cm FOV also centered on the object of interest. Image data were decay corrected to injection time (Albira, Bruker) and expressed as % ID/cc or SUV as indicated (PMOD, PMOD Technologies). Actual injected dose was calculated based on measuring the pre- and post-injection activity in the syringe with a dose calibrator on a per mouse basis (Capintec), and mice were individually weighed to calculate individual standardized uptake values. In the context of an acute inflammation model, [^18F]4FN was tested in a pilot experiment in Balb/c mice topically treated with PMA on the right ear or vehicle on the left ear. The treated ear turned red, visually confirming the inflammation site. Mice were injected IP with [^18F]4FN and PET/CT scans were taken at 11 min, 1 h, 2 h and 3 h post injection of tracer (FIG. 5). […] After 1 h, the inflamed ear was clearly visualized (>2% ID/cc). […] Production of reactive oxygen species in the inflamed ear was confirmed by BLI with luminol after PET imaging (FIG. 5) (Gross et al., 2009). This indicated the dependence of the signal on induced inflammation.

[5] = In vivo mouse blood and urine metabolism by radio-HPLC
Method: 3 Months old Balb/c female mice or 20-26 week-old female C57B16 mice (Taconic) were topically treated with PMA (Sigma) (400 μM) in ethanol on the right ear or vehicle, ethanol, on the left ear. 24 hrs later, inflammation of the right ear was validated by visual inspection for redness and swelling. Mice were then injected IV (unless noted) with [^18F]FN or [^18F]FNS or [^18F]FNG derivatives as noted and PET/CT images were acquired at times indicated, typically 1 hr post injection. Mice, n=3 for [^18F]FN and [^18F]FNS, were euthanized at 1.5 hr post injection for blood metabolism analysis. In one experiment, adult (3 month old Balb/c) were imaged on an in vivo imaging system (IVIS Spectrum, PE; 5 min, binning 16, 25 cm FOV) 10 min post injection of Luminol (200 mg/kg) IP to confirm production of reactive oxygen species. For [^18F]FDG PET imaging experiments, mice were fasted for >4 hr prior to FDG injection. Mice were injected with [^18F]FDG IV under light anesthesia and then allowed to awake, move and drink water at libitum. Cages were kept on a cage warmer during uptake and washout periods. Mice were imaged starting at 45 min post-injection with a 10 min PET/CT scan (Albira, Bruker).
In vivo mouse blood metabolism was also performed. Blood was drawn from inflamed, non-inflamed and MPO knock-out mice at 5 min and 1.5 h post injection, processed and analyzed by analytical radio-HPLC. […] While 4-fluoronaphthol metabolism has not been studied, naphthol metabolism is well documented in the literature: the molecule is reported to be quickly transformed into glucuronic and sulfuric esters, and this pathway is conserved from flies to man (Narukawa et al., 2004 and Terriere et al., 1961). […] To test this hypothesis, [^18F]4FN was transformed enzymatically with glucuronosyltransferase and sulfonyl transferase into the corresponding glucuronide and sulfate derivatives (Scheme 3), respectively, and the products analyzed by radio-HPLC.

[6] = Shelf-stability of the formulated radiotracer in PBS (10% EtOH); assay type: physicochemical
Method: as §1

[7] = test system: Nox2; test: PMA ear inflammation model in Nox2 KO mice, PET/CT imaging; assay type: in vivo, mouse; details: Nox2 KO mice (gp91phox-/-), IP, one-hour post administration
Method: Balb/c mice were treated with either PMA or vehicle and imaged 24 hr post treatment by PET/CT scan at 1 hr post-injection (IP) of [^18F]4FN (FIG. 1A); photograph 3 hr post [^18F]4FN (FIG. 1i). BLI 10 min post luminol injection (FIG. 1C). Aged-matched, 15-week-old female wild-type […] or Nox2 KO mice (n=3 each) were treated with PMA or vehicle and imaged with [^18F]4FN one-hour post IP administration of radiotracer. PET/CT data were quantified using ROIs surrounding the right and left ears. Contrast-to-noise ratios were calculated for all mice and data were plotted as mean and SEM. […] Radioactive HPLC trace and chemical structure of [^18F]4FN (FIG. 1E).
3 Months old Balb/c female mice or 20-26 week-old female C57B16 mice (Taconic) were topically treated with PMA (Sigma) (400 μM) in ethanol on the right ear or vehicle, ethanol, on the left ear. 24 hrs later, inflammation of the right ear was validated by visual inspection for redness and swelling. Mice were then injected IV (unless noted) with [^18F]FN or [^18F]FNS or [^18F]FNG derivatives as noted and PET/CT images were acquired at times indicated, typically 1 hr post injection. Mice, n=3 for [^18F]FN and [^18F]FNS, were euthanized at 1.5 hr post injection for blood metabolism analysis. […]

[8] = test system: 4T1 tumor; test: 4T1 tumor PET imaging; assay type: in vivo, mouse; details: immunocompetent Balb/C mice, 1 h after injection
Method: 4T1 murine breast cancer cells were cultured and passaged per ATCC guidelines and utilized prior to 20 passages. 10,000 4T1 cells were injected subcutaneously into the right flank of 6-8 week old Balb/c mice. Tumors grew for 3 weeks prior to imaging. In all cases, PET images were acquired for 10 min using a 15 cm FOV; CT images were acquired for fusion using a 7 cm FOV also centered on the object of interest. Image data were decay corrected to injection time (Albira, Bruker) and expressed as % ID/cc or SUV as indicated (PMOD, PMOD Technologies). Actual injected dose was calculated based on measuring the pre- and post-injection activity in the syringe with a dose calibrator on a per mouse basis (Capintec), and mice were individually weighed to calculate individual standardized uptake values. [^18F]4FNS PET has been employed to visualize 4T1 tumors in immunocompetent Balb/C mice. 4T1 is a reliable murine model for triple negative breast cancer and, in its early proliferative stage, is believed to be heavily infiltrated by immune cells, particularly active neutrophils and myeloid derived suppressor cells (MDSCs; Wang et al., 2017 and Bunt et al., 2006).

SMILES: c1ccc2c(c1)[I+]c1ccccc1-2 [DPI, reference compound]
blocking of PMA-induced [^18F]4FN retention ([1]; pre-incubation with inhibitor prior to PMA): blocked

SMILES: Oc1ccc([18F])c2ccccc12 [[^18F]4FN, 4-[^18F]fluoro-1-naphthol]
[^18F]4FN retention in activated cells vs vehicle (ratio) ([1]; PMA-activated differentiated HL-60 cells, normalized to vehicle): > 1 | correlation of PET accumulation in inflamed ankles with L012 bioluminescence ([2]; 1 hr, per animal basis): correlated strongly with L012; also recorded: directly correlated | imaging of inflammatory ROS burst by PET ([2]; C57BL6/N mice, LPS i.a. left ankle, i.v. tracer): readily image the inflammatory ROS burst | stable in mouse plasma [3]: at least 1 h | clearance of the tracer ([4]; Balb/c mice, IP injection): renal dominant | crossing of blood-brain barrier (radioactivity in the intracranial region) ([4]; Balb/c mice, IP injection): may not cross an intact blood-brain barrier | hepatobiliary excretion ([4]; Balb/c mice, IP injection): partial hepatobiliary excretion | radioactivity in the liver ([4]; Balb/c mice, IP injection): low | differentiation in uptake between inflamed right ear and vehicle treated left ear ([4]; Balb/c mice, IP injection, 11 min post-injection): no differentiation in uptake | uptake in inflamed ear ([4]; Balb/c mice, IP injection, 1 h post injection): > 2 % ID/cc | uptake-ratio between right-inflamed ear and left-control ear ([4]; IP injection, 11 min to 3 h post injection): increased over time | Cohen's d effect size, inflamed versus non-inflamed sites ([4]; IP or IV delivery, n=5): large Cohen's d effect sizes | contrast ratios inflamed versus non-inflamed ([4]; IP or IV delivery, n=5): strong contrast ratios | difference in SUV between inflamed and vehicle-treated ears ([4]; IP or IV delivery, n=5): statistically detectable differences in SUV; also recorded: statistically detectable differences in SUVaverage values | detection of PMA-inflamed ear versus vehicle ear by PET ([4]; IV injection): clearly visible | detection of PMA-inflamed ear versus vehicle ear by PET ([4]; IV injection, listed as [^18F]FN): readily detectable | blood metabolites ([5]; 5 min after injection): Metabolites are also present | blood metabolites ([5]; inflamed mice, 1.5 h post injection): more polar metabolites were observed | blood radio-HPLC, parent compound ([5]; non-inflamed and MPO knock-out mice, 1.5 h post injection): the parent compound could still be seen | shelf-stability [6]: up to 4 h | difference between inflamed and non-inflamed ear in Nox2 KO mice versus WT [7]: substantially smaller compared to WT inflamed mice; also recorded: decreased contrast between PMA-treated and untreated ears

SMILES: OC[C@H]1OC(O)[C@H]([18F])[C@@H](O)[C@@H]1O (some centres unmarked) [[^18F]FDG, reference compound]
detection of PMA-inflamed ear versus vehicle ear by PET ([4]; IV injection): no differentiation between the ears; also recorded: no FDG image asymmetry was observed

SMILES: O=C([O-])CC(O)(CC(=O)[O-])C(=O)[O-].[68Ga+3] [^68Ga-citrate, reference compound]
difference between inflamed and vehicle ears (perfusion control) ([4]; same animals, same time points): No difference between the ears

More lines, main results first:

clearance relative to other tracers ([4]; PMA model): cleared much faster
SMILES: O=C(O)C1OC(Oc2ccc([18F])c3ccccc23)C(O)C(O)C1O (centres unmarked) [[^18F]4FNG, [^18F]4-fluoronaphthalen-1-yl glucuronide]
detection of PMA-inflamed ear versus vehicle ear by PET ([4]; IV injection): small differentiation | retention in PMA-inflamed ear relative to other tracers ([4]; PMA model, 1 h post injection): retained much less than [^18F]FN and [^18F]FNS

clearance ([4]; IV injection, n=3): Rapid primarily renal clearance | defluorination (bone) ([4]; IV injection, n=3): minor defluorination | hepatobiliary excretion ([4]; IV injection, n=3): minor hepatobiliary excretion
SMILES: O=S(=O)(O)Oc1ccc([18F])c2ccccc12 [[^18F]4FNS, [^18F]4-fluoronaphthalen-1-yl sulfate]
detection of PMA-inflamed ear versus vehicle ear by PET ([4]; IV injection): readily detected; also recorded: clearly visible; also recorded: readily detectable | visualization of 4T1 tumor by PET [8]: clearly visible; also recorded: easily distinguishable
